Test results from patent US4837228A, “Antiinflammatory and antimicrobial compounds and compositions” (The University of Mississippi, priority 1982, dated 1989).
Converted amounts (≈) assume the structure as drawn. “Also recorded” adds a separate entry of the source. Read-outs that look alike come from different tables or passages of the source.

Tests used:
[1] = deaths and adverse effects observed in the rat paw edema test; type: in vivo
Description: (§1) In the Rat Paw Edema Test, the rats utilized were divided into test groups of six to eight animals, weighed and marked so that individual rats could be identified; one hour before testing all rats were given a 700 mg/kg intraperitoneal injection of ethyl urethane in distilled water to render them tractable during testing. A circle was drawn, with a felt-tipped marker, around the hind leg of each rat just above the ankle, and each rat was dosed with a test or control compound by intraperitoneal injection. Negative control groups received the vehicle; while positive control groups received a dose of phenylbutazone (PBZ) as shown in Table II. Test compounds were given at doses of 60, 120, 240 and 480 mg/kg. The positive controls were given at 120 mg/kg and 60 mg/kg. Phenylbutazone was prepared for injection by suspending it in normal saline using Tween 60. The rats were then held in group cages for 30 minutes. The volume of the left hind paw was measured using a mercury displacement pleysmograph. The paw is dipped into the mercury until the mercury touches the line above the ankle. Mercury is then withdrawn until the mercury returns to its original level. The amount of mercury removed is measured in milliliters (ml). The mercury can be measured accurately to 0.01 ml. This left hind paw was then injected with 0.1 ml of a 5% w/v solution of viscous carageenan in normal saline. The injection was given between the metatarsal bones using a 27 gauge needle, and the rats then held in group cages for 3 hours. The volume of the left hind paws was measured again in the pleysmograph. The results were computed in the following manner:
The eighth rat died within 24 hours of injection.

[2] = tested on: erythrocyte (heat-induced hemolysis); test: erythrocyte membrane stabilization assay (heat-induced erythrocyte hemolysis); type: cell-based; conditions: Erythrocyte; for inhibition at 250 µM: 2.5 × 10^-4 M
Description: The published procedure (Proc. Soc. Exp. Biol. Med. 1967; 125; 837-842 Brow et al) for in vitro assay for antiinflammatory agents based on stabilization of erythrocytes was used. All compounds were prepared for administration by dissolving in physiologic saline or suspending in 2% ethanol in saline and the pH adjusted to 7.4 The concentrations tested in one series are given in Table 8. Aspirin (ASA) and phenylbutazone were used as positive controls for comparison of activity. Tests using this procedure were successfully and repeatedly using either 40% or 20% RBC suspensions.

[3] = tested on: carrageenan-induced rat paw edema; test: carrageenan-induced rat paw edema test, intraperitoneal dosing; type: in vivo; set-up: key to mean difference in volume (MDV): post-injection minus pre-injection mean paw volume
Description: Two methods were used to assess the antiinflammatory activity of the compounds of the invention: the carrageenan-induced rat paw edema test and, the erythrocyte membrane stabilization assay.
as §1
(§2) a. A mean is taken for both the pre-injection and post-injection paw volume of each test group.
(§3) b. The mean difference in volume (MDV) for each test group is computed by subtracting the pre-injection means from the post-injection mean.
(§4) c. The percent of control is computed for each test [formula] The percent of control is used to compare the efficacy of the various drug treatments.
(§5) d. The percent increase in paw volume is calculated for each group as: [formula] The percent increase is used to compare the amount of edma observed in one experiment to the amount of edma observed in other experiments.
The data from the rat paw test were further analyzed using a one-way analysis of varience (ANOVA) and Duncan's New Multiple Range Test. The pre-injection score of each animal was subtracted from his post-injection score and an analysis of the different scores were conducted.
The procedure described above was followed. […] The vehicle control used was Tween 60, Arlacel and distilled water prepared without CBC(II).

[4] = tested on: carrageenan-induced rat paw edema; test: carrageenan-induced rat paw edema test, oral gavage; type: in vivo; set-up: key to mean difference in volume (MDV): ml; post-injection minus pre-injection mean paw volume
Description: as §1, with “A circle was drawn, with a felt-tipped marker, around the hind leg of each rat just above the ankle, and each rat was dosed with a test or control compound by intraperitoneal injection.” left out
as §2, §3, §4, §5
[…] The test was conducted twice, once with nonfasted rats and once with rats that had been fasted during the 24 hour period prior to dosing. The 60 mg/kg phenylbutazone control group was not used in the test with fasted animals. Tween 60 in normal saline was the vehicle control for the non-fasted rats and normal saline was the vehicle control for the fasted rats.

Staphylococcus aureus = test: MIC, two-fold (broth) serial dilution, S. aureus; type: cell-based; conditions: Staphylococcus aureus, read-out: MIC
Description: (§6) Both qualitative and quantitative screens were performed. Qualitative screening was accomplished using the agar well diffusion assay technque while quantitative screening was accomplished by the two-fold (broth) serial dilution method to determine the minimum inhibitory concentration (MIC). Innoculation was accomplished with one loop-full of a 1:10 dilution of the 24-hour-old broth culture, (fungal cultures and M.smegmatis more often required 48 to 72 hours of incubation) of the test organisms in sterile water. Streptomycin sulfate was used as a positive control for antibacterial activity while amphitericin B was used as an antifungal positive control. Organisms utilized in the screens included gram-positive, gram-negative, and acid-fast bacteria as well as different types of fungi. […] An intermediate type activity is seen where R is hydrogen. However, where R is lengthened up to C15 a decrease in activity was noted. Total saturation of the two double bonds in the compounds having a methyl side chain lead, in most cases, to an increase in both antifungal and antibacterial activity.

Bacillus subtilis = test: MIC, two-fold (broth) serial dilution, B. subtilis; type: cell-based; conditions: Bacillus subtilis, read-out: MIC
Description: as §6

Saccharomyces cerevisiae = test: MIC, two-fold (broth) serial dilution, S. cerevisiae; type: cell-based; conditions: Saccharomyces cerevisiae, read-out: MIC
Description: as §6

Mycobacterium smegmatis = test: MIC, two-fold (broth) serial dilution, M. smegmatis; type: cell-based; conditions: Mycolicibacterium smegmatis, read-out: MIC
Description: as §6

[5] = tested on: Trichophyton mentagrophytes; test: MIC, two-fold (broth) serial dilution, T. mentagrophytes; type: cell-based; conditions: Trichophyton mentagrophytes, read-out: MIC
Description: as §6

[6] = Table 8, 1 × 10^-4 M, read-out: inhibition of heat-induced erythrocyte hemolysis
[7] = Table 4, 60 mg/kg i.p., fasted rats
[8] = Table 4, 120 mg/kg i.p., fasted rats
[9] = Table 6, 60 mg/kg oral, non-fasted rats
[10] = Table 6, 120 mg/kg oral, non-fasted rats
[11] = Table 7, 120 mg/kg oral, fasted rats, doses approximate

Question: Which deaths ([1]; 240 mg/kg i.p. plus ethyl urethane i.p., listed as PBZ) does the source give for `CCCCC1C(=O)N(c2ccccc2)N(c2ccccc2)C1=O` [Phenylbutazone, reference compound] here?
Answer: rapid deaths; also recorded: Seven of the eight animals receiving 240 mg/kg of PBZ died before the test could be completed

Question: What about the inhibition at 100 µM [2, 6] of the same molecule?
Answer: 16%

Question: And the inhibition at 20 µM ([2]; Table 8, 2 × 10^-5 M, read-out: inhibition of heat-induced erythrocyte hemolysis)?
Answer: 10%

Question: What about the inhibition at 250 µM ([2]; Table 9 Test 1 (20% RBC), read-out: percent inhibition of heat-induced erythrocyte hemolysis) of the same molecule?
Answer: 54%

Question: What about the inhibition at 25 µM ([2]; Table 9 Test 1 (20% RBC), 2.5 × 10^-5 M, read-out: percent inhibition of heat-induced erythrocyte hemolysis) of the same molecule?
Answer: 31%

Question: What about the inhibition at 250 µM ([2]; Table 9 Test 2 (40% RBC), read-out: percent inhibition of heat-induced erythrocyte hemolysis) of the same molecule?
Answer: 70%

Question: And the inhibition at 20 µM ([2]; Table 9 Test 3 (20% RBC), 2.0 × 10^-5 M, read-out: percent inhibition of heat-induced erythrocyte hemolysis)?
Answer: 10%

Question: What about the inhibition at 250 µM ([2]; Table 9 Test 3 (20% RBC), read-out: percent inhibition of heat-induced erythrocyte hemolysis) of the same molecule?
Answer: 49%

Question: And the inhibition at 100 µM ([2]; read-out: percent inhibition of heat-induced erythrocyte hemolysis, Table 9 Test 3 (20% RBC), 1.0 × 10^-4 M)?
Answer: 16%

Question: What about the inhibition at 20 µM ([2]; 2×10^-5 M, read-out: inhibition of heat-induced red cell hemolysis) of the same molecule?
Answer: 10%

Question: What about the inhibition at 100 µM ([2]; 10^-4 M, read-out: inhibition of heat-induced red cell hemolysis) of the same molecule?
Answer: 16%

Question: And the inhibition at 60 mg/kg ([3]; Rattus norvegicus, ip, Table 5, 60 mg/kg i.p., * P = 0.01)?
Answer: 52%

Question: And the inhibition at 120 mg/kg ([3]; Rattus norvegicus, ip, Table 5, 120 mg/kg i.p., * P = 0.01, read-out: inhibition of carrageenan-induced rat paw edema)?
Answer: 76%

Question: And the “percent increase in paw volume” value ([3]; Table 1, 120 mg/kg i.p.)?
Answer: 10.316%

Question: And the percent of control ([3]; Table 1, 120 mg/kg i.p.)?
Answer: 22.973%

Question: What about the “mean difference in volume (MDV)” value ([3]; Table 1, 120 mg/kg i.p., paw volume measured in ml) of the same molecule?
Answer: 0.106

Question: What about the “group mean difference score” value ([3]; Table 3, 120 mg/kg) of the same molecule?
Answer: 0.016

Question: And the “difference of mean scores versus vehicle control (Duncan's test)” value ([3]; Table 3, 120 mg/kg, ** p 0.01)?
Answer: 0.356

Question: What about the “difference of mean scores (Duncan's test)” value ([3]; Table 3, PBZ 120 mg/kg versus CBC 240 mg/kg) of the same molecule?
Answer: 0.102

Question: What about the “difference of mean scores (Duncan's test)” value ([3]; Table 3, PBZ 120 mg/kg versus CBC 480 mg/kg, * p 0.05) of the same molecule?
Answer: 0.149

Question: What about the “mean difference in volume (MDV)” value [3, 7] of the same molecule?
Answer: 0.090

Question: What about the “percent increase in paw volume” value [3, 7] of the same molecule?
Answer: 6.742%

Question: And the percent of control [3, 7]?
Answer: 47.059%

Question: And the “mean difference in volume (MDV)” value [3, 8]?
Answer: 0.046

Question: What about the “percent increase in paw volume” value [3, 8] of the same molecule?
Answer: 3.254%

Question: What about the percent of control [3, 8] of the same molecule?
Answer: 24.183%

Question: What about the inhibition at 120 mg/kg ([4]; Rattus norvegicus, po, Table 5, 120 mg/kg oral, fasted rats, N.S., read-out: inhibition of carrageenan-induced rat paw edema) of the same molecule?
Answer: 36%

Question: What about the inhibition at 60 mg/kg ([4]; Rattus norvegicus, po, read-out: inhibition of carrageenan-induced rat paw edema, Table 5, 60 mg/kg oral, nonfasted rats, * P = 0.01) of the same molecule?
Answer: 37%

Question: What about the inhibition at 120 mg/kg ([4]; Rattus norvegicus, po, read-out: inhibition of carrageenan-induced rat paw edema, Table 5, 120 mg/kg oral, nonfasted rats) of the same molecule?
Answer: 22%

Question: What about the “mean difference in volume (MDV)” value [4, 9] of the same molecule?
Answer: 0.489

Question: And the “percent increase in paw volume” value [4, 9]?
Answer: 50.257%

Question: And the percent of control [4, 9]?
Answer: 78.200%

Question: What about the “mean difference in volume (MDV)” value [4, 10] of the same molecule?
Answer: 0.392

Question: And the “percent increase in paw volume” value [4, 10]?
Answer: 36.098%

Question: What about the percent of control [4, 10] of the same molecule?
Answer: 62.667%

Question: What about the “mean difference in volume (MDV)” value [4, 11] of the same molecule?
Answer: 0.403

Question: What about the “percent increase in paw volume” value [4, 11] of the same molecule?
Answer: 31.051%

Question: And the percent of control [4, 11]?
Answer: 64.400%

Question: And the “antiinflammatory activity compared with PBZ in words” value ([4]; oral)?
Answer: slightly more effective than CBC at 120 mg/kg in the nonfasted rats

Question: With `CC(C)=CCCC1(C)C=Cc2c(O)cc(C)cc2O1` (centres unmarked) [CBC (II), 2 methyl-2(4'-methyl-pent-3'-enyl)-5-hydroxy-7-metylchromene] as the molecule, how does the MIC (Staphylococcus aureus; 24 h) read?
Answer: 3.12 mg/L (≈ 12.1 µM)

Question: And the MIC (Staphylococcus aureus; 48 h)?
Answer: 3.12 mg/L (≈ 12.1 µM)

Question: What about the MIC (Bacillus subtilis; 24 h) of the same molecule?
Answer: 3.12 mg/L (≈ 12.1 µM)

Question: What about the MIC (Bacillus subtilis; 48 h) of the same molecule?
Answer: 3.12 mg/L (≈ 12.1 µM)

Question: What about the “toxic or adverse effects” value ([1]; 60 and 120 mg/kg i.p.) of the same molecule?
Answer: No toxic or adverse effects were observed

Question: And the inhibition at 100 µM [2, 6]?
Answer: 86%

Question: What about the MIC (Saccharomyces cerevisiae; 48 h) of the same molecule?
Answer: 6.25 mg/L (≈ 24.2 µM)

Question: What about the MIC (Saccharomyces cerevisiae; 72 h) of the same molecule?
Answer: 12.5 mg/L (≈ 48.4 µM)

Question: What about the MIC (Mycobacterium smegmatis; 24 h) of the same molecule?
Answer: 3.12 mg/L (≈ 12.1 µM)

Question: What about the MIC (Mycobacterium smegmatis; 48 h) of the same molecule?
Answer: 6.25 mg/L (≈ 24.2 µM)

Question: What about the “mean difference in volume (MDV)” value [3, 7] of the same molecule?
Answer: 0.090

Question: What about the “percent increase in paw volume” value [3, 7] of the same molecule?
Answer: 6.742%

Question: And the percent of control [3, 7]?
Answer: 47.059%

Question: And the “mean difference in volume (MDV)” value [3, 8]?
Answer: 0.070

Question: And the “percent increase in paw volume” value [3, 8]?
Answer: 4.956%

Question: And the percent of control [3, 8]?
Answer: 36.601%

Question: And the “antiinflammatory activity compared with PBZ in words” value ([3]; i.p.)?
Answer: slightly less activity than PBZ at the 120 mg/kg dose; also recorded: as active at PBZ at 60 mg/kg

Question: And the “antiinflammatory effect in words” value ([3]; i.p.)?
Answer: active at both 60 mg/kg and 120 mg/kg

Question: What about the MIC ([5]; 48 h) of the same molecule?
Answer: 6.25 mg/L (≈ 24.2 µM)

Question: What about the MIC ([5]; 72 h) of the same molecule?
Answer: 6.25 mg/L (≈ 24.2 µM)
